According to ChEMBL document CHEMBL5465560, “Selectivity Literature for EUbOPEN Chemogenomic Library” (2024):

How the values were obtained:
[1] = target: T1, Ephrin type-B receptor 3 (Homo sapiens) (UniProt P54753); test: Selectivity interaction (KinomeScan (DiscoverX)) EUB0001079a EPHB3; conditions: at 1 µM
T1 sequence (whole entry): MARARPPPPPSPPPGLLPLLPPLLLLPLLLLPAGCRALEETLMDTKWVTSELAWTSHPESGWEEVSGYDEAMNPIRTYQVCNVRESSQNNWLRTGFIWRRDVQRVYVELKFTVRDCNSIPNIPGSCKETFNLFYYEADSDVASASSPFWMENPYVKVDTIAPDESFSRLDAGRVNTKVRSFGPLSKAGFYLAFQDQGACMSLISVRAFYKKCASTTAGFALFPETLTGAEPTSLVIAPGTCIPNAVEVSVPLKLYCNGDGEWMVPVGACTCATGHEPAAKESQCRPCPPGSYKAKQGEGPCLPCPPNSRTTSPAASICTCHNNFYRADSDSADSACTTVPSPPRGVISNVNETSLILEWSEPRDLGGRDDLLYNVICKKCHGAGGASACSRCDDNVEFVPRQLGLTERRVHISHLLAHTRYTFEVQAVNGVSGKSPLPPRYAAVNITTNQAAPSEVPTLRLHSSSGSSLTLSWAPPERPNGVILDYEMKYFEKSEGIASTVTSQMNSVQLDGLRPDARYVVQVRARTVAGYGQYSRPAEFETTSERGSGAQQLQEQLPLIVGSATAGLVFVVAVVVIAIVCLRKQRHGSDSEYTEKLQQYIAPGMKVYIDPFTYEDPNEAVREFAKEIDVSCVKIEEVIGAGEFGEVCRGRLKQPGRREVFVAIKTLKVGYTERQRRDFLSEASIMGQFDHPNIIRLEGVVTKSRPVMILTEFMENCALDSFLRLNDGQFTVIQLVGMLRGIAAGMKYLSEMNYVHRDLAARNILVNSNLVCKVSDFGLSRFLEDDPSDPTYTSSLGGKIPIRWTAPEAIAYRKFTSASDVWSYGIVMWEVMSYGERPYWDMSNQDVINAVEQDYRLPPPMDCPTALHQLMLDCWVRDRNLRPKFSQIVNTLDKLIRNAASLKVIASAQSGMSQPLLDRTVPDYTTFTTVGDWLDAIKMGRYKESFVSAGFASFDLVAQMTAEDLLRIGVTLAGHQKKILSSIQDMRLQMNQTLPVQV

[2] = target: Mitogen-activated protein kinase kinase kinase 4 (Homo sapiens) (UniProt Q9Y6R4); conditions: at 10 µM
[3] = target: Calcium/calmodulin-dependent protein kinase kinase 2 (Homo sapiens) (UniProt Q96RR4); conditions: at 10 µM
[4] = target: Glycogen synthase kinase-3 beta (Homo sapiens, UniProt P49841); test: Selectivity interaction (Kinase panel (DSF assay)) EUB0001559a GSK3B
[5] = target: Mitogen-activated protein kinase kinase kinase 11 (Homo sapiens) (UniProt Q16584); test: Selectivity interaction (ActivX KiNativ screen (kinase selectivity in THP-1 cell lysates)) EUB0000639a MAP3K11; format: subcellular; conditions: lysate, at 0.01 µM
[6] = target: Tyrosine-protein kinase Fer (Homo sapiens) (UniProt P16591); test: Selectivity interaction (KinomeScan (DiscoverX)) EUB0000618a FER; conditions: at 10 µM
[7] = target: Vascular endothelial growth factor receptor 2 (Homo sapiens, UniProt P35968); test: Selectivity interaction (KinomeScan (DiscoverX)) EUB0001619a KDR; conditions: at 1 µM
[8] = target: Mitogen-activated protein kinase 11 (Homo sapiens) (UniProt Q15759); test: Selectivity interaction (KinomeScan (DiscoverX)) EUB0001619a MAPK11; conditions: at 1 µM
[9] = target: Proto-oncogene tyrosine-protein kinase ROS (Homo sapiens) (UniProt P08922); test: Selectivity interaction (KinomeScan (DiscoverX)) EUB0001619a ROS1; conditions: at 1 µM
[10] = target: T2, Kinase suppressor of Ras 2 (Homo sapiens) (UniProt Q6VAB6); test: Selectivity interaction (Kinase panel (Z-LYTE Assay)) EUB0001632a KSR2; conditions: at 10 µM
T2 sequence (whole entry): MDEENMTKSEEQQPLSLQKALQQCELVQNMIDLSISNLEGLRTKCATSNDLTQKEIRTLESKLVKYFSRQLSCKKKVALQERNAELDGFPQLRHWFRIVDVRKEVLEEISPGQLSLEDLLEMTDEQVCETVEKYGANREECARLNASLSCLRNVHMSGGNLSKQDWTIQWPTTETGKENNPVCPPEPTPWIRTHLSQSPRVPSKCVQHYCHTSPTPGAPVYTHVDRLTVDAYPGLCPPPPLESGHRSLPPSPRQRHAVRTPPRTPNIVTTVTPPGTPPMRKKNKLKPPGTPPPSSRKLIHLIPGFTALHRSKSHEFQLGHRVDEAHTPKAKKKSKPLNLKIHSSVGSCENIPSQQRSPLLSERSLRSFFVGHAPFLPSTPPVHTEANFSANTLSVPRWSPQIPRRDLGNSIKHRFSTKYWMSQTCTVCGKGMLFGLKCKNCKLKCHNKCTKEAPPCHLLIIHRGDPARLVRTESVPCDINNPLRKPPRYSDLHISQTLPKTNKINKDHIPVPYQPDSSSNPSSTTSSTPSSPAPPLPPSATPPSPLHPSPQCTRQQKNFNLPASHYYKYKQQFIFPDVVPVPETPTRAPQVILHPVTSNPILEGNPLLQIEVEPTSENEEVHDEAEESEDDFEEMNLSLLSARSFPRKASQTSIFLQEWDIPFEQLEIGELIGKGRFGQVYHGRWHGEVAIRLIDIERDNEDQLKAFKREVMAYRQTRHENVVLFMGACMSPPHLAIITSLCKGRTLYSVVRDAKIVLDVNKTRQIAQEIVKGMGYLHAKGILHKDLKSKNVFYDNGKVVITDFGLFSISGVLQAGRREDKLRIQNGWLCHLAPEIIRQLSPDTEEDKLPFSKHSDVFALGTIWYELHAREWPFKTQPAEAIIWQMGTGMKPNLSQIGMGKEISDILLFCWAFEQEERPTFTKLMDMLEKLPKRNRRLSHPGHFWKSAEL

[11] = target: Cyclin-dependent kinase 14/Cyclin-Y (Homo sapiens) (UniProt O94921+Q8ND76); test: Selectivity interaction (LanthaScreen Eu Kinase Binding Assay) EUB0001632a CDK14; format: protein-complex assay; conditions: at 10 µM

Chain of Glycogen synthase kinase-3 beta (P49841 whole entry, looked up): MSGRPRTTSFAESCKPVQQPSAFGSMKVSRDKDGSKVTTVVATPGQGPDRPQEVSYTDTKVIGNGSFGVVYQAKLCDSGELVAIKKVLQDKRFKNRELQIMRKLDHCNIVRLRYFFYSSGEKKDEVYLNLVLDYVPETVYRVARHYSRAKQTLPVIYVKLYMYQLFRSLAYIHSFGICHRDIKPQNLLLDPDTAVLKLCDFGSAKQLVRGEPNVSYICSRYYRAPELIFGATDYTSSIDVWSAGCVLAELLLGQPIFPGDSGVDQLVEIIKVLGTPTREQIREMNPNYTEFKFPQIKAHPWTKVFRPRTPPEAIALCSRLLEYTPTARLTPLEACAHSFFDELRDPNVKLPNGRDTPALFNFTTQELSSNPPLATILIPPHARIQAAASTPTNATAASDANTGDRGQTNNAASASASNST
Chain of Mitogen-activated protein kinase kinase kinase 4 (Homo sapiens) (Q9Y6R4 whole entry): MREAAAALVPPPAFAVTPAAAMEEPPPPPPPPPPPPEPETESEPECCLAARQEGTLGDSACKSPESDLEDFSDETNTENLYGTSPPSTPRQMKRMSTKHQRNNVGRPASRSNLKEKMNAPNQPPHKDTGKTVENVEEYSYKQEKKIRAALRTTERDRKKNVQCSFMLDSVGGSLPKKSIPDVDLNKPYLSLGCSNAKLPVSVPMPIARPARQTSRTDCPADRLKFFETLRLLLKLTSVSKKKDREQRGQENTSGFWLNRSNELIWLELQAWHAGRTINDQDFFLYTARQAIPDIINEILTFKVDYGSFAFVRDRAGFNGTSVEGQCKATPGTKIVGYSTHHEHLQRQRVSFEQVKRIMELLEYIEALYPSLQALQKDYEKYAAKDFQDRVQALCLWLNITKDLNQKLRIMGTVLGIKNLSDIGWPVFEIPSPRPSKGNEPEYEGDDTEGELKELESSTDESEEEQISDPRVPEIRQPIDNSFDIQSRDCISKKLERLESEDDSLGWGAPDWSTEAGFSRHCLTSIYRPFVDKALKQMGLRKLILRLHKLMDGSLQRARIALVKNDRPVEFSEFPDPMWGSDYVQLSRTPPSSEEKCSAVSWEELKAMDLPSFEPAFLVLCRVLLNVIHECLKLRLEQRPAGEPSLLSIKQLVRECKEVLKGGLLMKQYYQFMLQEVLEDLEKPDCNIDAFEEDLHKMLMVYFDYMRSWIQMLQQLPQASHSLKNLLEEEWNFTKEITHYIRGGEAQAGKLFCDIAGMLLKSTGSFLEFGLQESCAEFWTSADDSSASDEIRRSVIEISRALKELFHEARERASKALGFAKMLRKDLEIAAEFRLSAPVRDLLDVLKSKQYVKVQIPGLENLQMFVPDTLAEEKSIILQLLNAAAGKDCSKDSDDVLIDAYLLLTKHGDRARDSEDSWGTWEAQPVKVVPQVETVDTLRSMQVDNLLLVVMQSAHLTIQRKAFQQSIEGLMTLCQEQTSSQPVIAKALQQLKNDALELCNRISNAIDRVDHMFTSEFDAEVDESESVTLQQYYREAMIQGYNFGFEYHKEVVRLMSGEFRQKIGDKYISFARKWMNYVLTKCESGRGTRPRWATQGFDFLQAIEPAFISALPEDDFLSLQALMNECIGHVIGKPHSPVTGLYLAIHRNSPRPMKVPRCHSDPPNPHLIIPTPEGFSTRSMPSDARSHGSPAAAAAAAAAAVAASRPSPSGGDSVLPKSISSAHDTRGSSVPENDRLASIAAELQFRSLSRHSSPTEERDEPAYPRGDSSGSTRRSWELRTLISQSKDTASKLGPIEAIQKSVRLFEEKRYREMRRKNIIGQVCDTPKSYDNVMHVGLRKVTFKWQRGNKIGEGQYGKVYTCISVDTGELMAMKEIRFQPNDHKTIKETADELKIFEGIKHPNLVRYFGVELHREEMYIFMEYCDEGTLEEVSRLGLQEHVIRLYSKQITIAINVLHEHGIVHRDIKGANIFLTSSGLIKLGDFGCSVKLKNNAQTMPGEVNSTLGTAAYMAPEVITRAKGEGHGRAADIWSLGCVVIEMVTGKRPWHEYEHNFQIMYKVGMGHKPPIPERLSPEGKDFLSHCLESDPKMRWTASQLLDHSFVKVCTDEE
Chain of Mitogen-activated protein kinase kinase kinase 11 (Homo sapiens) (Q16584 whole entry, looked up): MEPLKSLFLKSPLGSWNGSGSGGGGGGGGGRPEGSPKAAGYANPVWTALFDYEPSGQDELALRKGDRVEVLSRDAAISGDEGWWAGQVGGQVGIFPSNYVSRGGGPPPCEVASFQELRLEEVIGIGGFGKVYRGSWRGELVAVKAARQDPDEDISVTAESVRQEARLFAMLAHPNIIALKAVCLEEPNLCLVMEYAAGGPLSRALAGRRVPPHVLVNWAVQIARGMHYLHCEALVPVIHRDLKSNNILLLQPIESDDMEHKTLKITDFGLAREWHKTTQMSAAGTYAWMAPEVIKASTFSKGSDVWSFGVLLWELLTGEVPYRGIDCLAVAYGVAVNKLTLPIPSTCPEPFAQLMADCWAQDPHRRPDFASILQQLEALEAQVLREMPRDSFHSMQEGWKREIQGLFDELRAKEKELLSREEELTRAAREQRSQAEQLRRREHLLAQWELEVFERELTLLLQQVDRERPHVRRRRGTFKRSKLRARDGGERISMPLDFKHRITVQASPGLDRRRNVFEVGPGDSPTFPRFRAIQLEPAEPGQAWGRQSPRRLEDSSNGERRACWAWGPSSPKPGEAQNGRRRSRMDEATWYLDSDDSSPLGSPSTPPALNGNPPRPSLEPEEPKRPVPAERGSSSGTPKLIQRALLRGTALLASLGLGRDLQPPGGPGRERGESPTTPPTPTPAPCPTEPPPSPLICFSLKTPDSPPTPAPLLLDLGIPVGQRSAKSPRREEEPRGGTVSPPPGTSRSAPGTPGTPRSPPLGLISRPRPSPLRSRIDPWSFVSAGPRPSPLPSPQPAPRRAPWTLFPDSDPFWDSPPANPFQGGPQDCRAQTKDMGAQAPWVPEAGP
Chain of Tyrosine-protein kinase Fer (Homo sapiens) (P16591 whole entry, looked up): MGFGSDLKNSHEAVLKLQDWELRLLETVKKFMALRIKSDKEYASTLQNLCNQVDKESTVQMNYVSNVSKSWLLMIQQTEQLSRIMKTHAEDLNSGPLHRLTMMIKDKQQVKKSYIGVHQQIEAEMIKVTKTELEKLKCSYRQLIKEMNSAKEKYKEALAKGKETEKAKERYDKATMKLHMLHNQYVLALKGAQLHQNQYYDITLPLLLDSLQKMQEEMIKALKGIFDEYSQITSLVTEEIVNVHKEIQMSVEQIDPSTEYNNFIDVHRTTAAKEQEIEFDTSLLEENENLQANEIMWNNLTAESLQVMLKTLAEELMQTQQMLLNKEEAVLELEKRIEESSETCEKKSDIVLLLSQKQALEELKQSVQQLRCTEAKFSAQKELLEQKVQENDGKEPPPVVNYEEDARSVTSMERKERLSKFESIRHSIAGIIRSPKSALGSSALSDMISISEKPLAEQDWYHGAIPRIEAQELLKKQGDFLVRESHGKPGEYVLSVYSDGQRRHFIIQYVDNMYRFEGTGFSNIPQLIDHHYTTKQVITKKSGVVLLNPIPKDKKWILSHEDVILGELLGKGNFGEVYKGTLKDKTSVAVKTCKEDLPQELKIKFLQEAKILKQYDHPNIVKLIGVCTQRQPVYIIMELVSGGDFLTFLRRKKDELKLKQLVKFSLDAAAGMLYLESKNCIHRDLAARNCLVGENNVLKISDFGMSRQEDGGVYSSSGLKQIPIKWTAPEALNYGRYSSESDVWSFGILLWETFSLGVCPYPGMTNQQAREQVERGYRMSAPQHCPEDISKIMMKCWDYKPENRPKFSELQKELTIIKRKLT
Chain of Vascular endothelial growth factor receptor 2 (P35968 whole entry): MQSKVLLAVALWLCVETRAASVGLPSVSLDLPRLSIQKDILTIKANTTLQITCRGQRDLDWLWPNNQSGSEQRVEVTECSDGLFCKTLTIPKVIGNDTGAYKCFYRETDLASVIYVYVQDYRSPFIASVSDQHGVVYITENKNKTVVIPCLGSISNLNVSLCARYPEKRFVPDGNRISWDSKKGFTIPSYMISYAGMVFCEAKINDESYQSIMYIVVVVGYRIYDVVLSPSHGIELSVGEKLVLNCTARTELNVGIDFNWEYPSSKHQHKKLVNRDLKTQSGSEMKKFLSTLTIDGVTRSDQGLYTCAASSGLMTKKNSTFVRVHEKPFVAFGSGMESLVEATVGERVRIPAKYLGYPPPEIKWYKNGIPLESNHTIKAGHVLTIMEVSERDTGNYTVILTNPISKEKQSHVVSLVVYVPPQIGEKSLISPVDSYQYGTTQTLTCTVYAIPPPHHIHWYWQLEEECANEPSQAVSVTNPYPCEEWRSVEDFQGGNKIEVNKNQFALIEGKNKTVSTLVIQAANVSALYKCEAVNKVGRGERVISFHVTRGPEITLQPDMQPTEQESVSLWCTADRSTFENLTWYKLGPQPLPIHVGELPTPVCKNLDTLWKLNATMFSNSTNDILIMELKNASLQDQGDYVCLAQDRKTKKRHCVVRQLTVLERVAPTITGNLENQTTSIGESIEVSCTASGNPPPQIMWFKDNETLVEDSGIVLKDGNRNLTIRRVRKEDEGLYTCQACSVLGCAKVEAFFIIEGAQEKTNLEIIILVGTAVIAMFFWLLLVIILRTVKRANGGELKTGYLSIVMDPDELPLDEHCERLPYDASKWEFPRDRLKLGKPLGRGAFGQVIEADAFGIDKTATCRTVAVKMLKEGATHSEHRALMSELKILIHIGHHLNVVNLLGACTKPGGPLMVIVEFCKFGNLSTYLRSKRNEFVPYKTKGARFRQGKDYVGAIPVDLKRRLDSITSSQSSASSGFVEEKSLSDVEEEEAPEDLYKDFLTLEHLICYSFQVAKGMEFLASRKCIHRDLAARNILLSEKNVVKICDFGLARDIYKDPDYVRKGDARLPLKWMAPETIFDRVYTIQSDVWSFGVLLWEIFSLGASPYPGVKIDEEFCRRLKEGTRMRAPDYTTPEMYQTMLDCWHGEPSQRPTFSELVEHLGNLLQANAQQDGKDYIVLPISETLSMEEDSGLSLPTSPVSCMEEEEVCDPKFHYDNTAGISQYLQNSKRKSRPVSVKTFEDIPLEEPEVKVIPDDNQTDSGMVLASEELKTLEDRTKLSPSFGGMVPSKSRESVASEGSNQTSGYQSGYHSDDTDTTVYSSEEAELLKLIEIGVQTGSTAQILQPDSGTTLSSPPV

Structure (SMILES): Nc1cnc(N2CCc3cc(S(=O)(=O)Nc4c(F)cc(Cl)cc4F)cc(N4CCCC4=O)c32)nc1 [TP-020n]
- % of control [1]: 100%

Structure (SMILES): CCN(CC)CCCCNc1ncc2cc(-c3cc(OC)cc(OC)c3)c(NC(=O)NC(C)(C)C)nc2n1
- % of control [2]: 100%
- % of control [3]: 100%

Structure (SMILES): CN(C(=O)c1cnn2cccnc12)c1cc2c(cc1N1CCOCC1)C(=O)N(C[C@@H](F)C(C)(C)O)C2
- dTM [4]: -0.4 K

Structure (SMILES): CC[C@@H]1[C@H](F)C(=O)N[C@@H]1COc1nccc2cc(C(N)=O)c(OC)cc12 [ZIMLOVISERTIB]
- % of inhibition [5]: 4.9%

Structure (SMILES): O[C@H]1CC[C@H](Nc2ncc3nc(Nc4c(F)cc(F)cc4F)n([C@H]4CCOC4)c3n2)CC1
- % of control [6]: 100%

Structure (SMILES): N#Cc1cccc(-c2c[nH]c3ncnc(N4CCOCC4)c23)c1
- % of control [7]: 62%
- % of control [8]: 100%
- % of control [9]: 90%

Structure (SMILES): Cn1cc(-n2cnc3c(NCc4nc5cc(Cl)c(Cl)cc5[nH]4)nc(N4CCOCC4)nc32)cn1
- % of control [10]: 1.65%
- % of inhibition [11]: -159%
